Laboratory results taken from ChEMBL document CHEMBL1201862, “PubChem BioAssay data set” (2004).
One block for each molecule: values may come before it. Activity calls are given as the source filed them.

How the values were obtained:
[1] = test system: HEK293; test: cells; conditions: Homo sapiens
[2] = target: T1, COUP transcription factor 2 (Homo sapiens, UniProt P24468); test: Luminescence-based cell-based high throughput dose response assay to identify inhibitors of COUP-TFII (NR2F2).; type: functional;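 note: HEK293 cells transiently cotransfected with COUP-TFII expression vector and reporter; luciferase reporter luminescence driven by COUP-TFII from the pX2-168 reporter plasmid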
T1 sequence (P24468 whole entry): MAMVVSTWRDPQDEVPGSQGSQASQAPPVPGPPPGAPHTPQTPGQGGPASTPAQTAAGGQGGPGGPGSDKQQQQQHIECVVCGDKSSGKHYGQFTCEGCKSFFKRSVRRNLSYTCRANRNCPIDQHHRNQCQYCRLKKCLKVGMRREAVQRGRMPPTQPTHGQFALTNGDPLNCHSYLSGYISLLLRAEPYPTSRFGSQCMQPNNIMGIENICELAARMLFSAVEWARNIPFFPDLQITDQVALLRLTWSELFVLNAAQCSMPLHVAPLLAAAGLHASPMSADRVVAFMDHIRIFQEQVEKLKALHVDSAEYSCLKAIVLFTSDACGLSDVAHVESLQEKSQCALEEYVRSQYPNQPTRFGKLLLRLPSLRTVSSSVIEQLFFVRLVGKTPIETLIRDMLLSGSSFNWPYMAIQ

[3] = reduction of Shn3 3'UTR-driven luciferase in osteoblasts – cell-based, Clone20 osteoblasts, firefly luciferase, cherry-picked, dose response (AID 624132); type: functional;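 note: firefly luciferase luminescence from reporter carrying the Shn3 3'UTR in osteoblasts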
[4] = non-specific 3'UTR reporter inhibition in Clone20-Shn3RL – cell-based, Renilla luciferase, cherry-picked, counter-screen for Shn3 inhibitor project, dose response (AID 624133); type: functional
[5] = test system: INS1; test: INS-1E survival protection against cytokine death – cell-based, luminescence, retest, dose response (AID 449756); type: functional; conditions: Rattus norvegicus;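 note: cell death triggered by IL-1 beta plus TNF-alpha plus IFN-gamma mixture; protective hits raise ATP signal compared with cytokine alone wells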
[6] = target: Tumor necrosis factor (Homo sapiens, UniProt P01375); test: analog potency on TNFa NF-kB signaling – cell-based, revised, SAR follow-up (AID 2337); type: functional
[7] = target: T2, Nucleotide-binding oligomerization domain-containing protein 1 (Homo sapiens, UniProt Q9Y239); test: blockers of NOD1 pathway activity – revised, SAR follow-up (AID 2333); type: functional
T2 sequence (Q9Y239 whole entry): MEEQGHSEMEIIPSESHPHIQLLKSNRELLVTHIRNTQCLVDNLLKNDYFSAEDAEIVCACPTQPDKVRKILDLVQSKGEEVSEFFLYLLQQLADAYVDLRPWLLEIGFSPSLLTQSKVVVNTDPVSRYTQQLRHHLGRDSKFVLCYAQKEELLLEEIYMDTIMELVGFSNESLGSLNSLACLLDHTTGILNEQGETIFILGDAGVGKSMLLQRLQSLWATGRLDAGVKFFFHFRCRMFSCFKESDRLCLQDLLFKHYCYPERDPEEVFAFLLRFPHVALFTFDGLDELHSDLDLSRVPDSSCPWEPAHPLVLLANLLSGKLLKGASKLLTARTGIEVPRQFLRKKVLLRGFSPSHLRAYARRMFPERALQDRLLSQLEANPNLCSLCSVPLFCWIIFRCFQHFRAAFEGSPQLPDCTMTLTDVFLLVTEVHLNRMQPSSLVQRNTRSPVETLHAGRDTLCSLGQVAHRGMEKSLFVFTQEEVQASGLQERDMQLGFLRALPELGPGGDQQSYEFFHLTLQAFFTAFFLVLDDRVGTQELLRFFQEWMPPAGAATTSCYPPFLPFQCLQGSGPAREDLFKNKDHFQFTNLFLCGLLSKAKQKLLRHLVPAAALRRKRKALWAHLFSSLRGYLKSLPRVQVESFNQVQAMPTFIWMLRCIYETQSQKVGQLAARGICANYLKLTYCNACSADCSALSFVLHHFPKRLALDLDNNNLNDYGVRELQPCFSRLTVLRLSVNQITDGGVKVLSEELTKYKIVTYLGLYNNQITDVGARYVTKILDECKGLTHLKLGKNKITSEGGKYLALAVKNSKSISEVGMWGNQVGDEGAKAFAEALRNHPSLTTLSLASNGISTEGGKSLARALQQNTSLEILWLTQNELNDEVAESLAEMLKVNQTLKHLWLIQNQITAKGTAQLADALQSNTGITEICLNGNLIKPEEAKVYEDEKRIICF

[8] = target: Cytochrome P450 2D6 (Homo sapiens, UniProt P10635);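 note: CYP2D6 member of a cytochrome P450 panel assay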
[9] = target: Cytochrome P450 2C19 (Homo sapiens, UniProt P33261); test: Cytochrome panel assay with activity outcomes. Panel member name: p450-cyp2c19 Compounds with AC50 equal or less than 10 uM are considered active; type: functional; conditions: read-out: AC50
[10] = test system: HEK293; test: NOD2 signaling inhibitors in MDP-stimulated cells, cell-based, uHTS, luminescence (AID 2001); type: functional; conditions: Homo sapiens
[11] = test system: HEK293; test: cells; type: functional, cell-based; conditions: Homo sapiens
[12] = test system: HEK293; test: inhibition of NOD1-driven NF-kB reporter – cell-based, luminescence, uHTS, primary screen (AID 1578); type: functional; conditions: Homo sapiens
[13] = test system: HEK293; test: cells; type: functional, cell-based; conditions: Homo sapiens; remark: listed apart in the source
[14] = test system: HEK293; test: cells; type: functional, cell-based; conditions: Homo sapiens; remark: listed apart in the source
[15] = target: T3, Hexokinase HKDC1 (Homo sapiens, UniProt Q2TB90); test: SAR analysis of small molecule inhibitors of hexokinase domain containing I (HKDC1). [Related pubchem assays (depositor defined):AID493160, AID493190]; type: functional
T3 sequence (Q2TB90 whole entry): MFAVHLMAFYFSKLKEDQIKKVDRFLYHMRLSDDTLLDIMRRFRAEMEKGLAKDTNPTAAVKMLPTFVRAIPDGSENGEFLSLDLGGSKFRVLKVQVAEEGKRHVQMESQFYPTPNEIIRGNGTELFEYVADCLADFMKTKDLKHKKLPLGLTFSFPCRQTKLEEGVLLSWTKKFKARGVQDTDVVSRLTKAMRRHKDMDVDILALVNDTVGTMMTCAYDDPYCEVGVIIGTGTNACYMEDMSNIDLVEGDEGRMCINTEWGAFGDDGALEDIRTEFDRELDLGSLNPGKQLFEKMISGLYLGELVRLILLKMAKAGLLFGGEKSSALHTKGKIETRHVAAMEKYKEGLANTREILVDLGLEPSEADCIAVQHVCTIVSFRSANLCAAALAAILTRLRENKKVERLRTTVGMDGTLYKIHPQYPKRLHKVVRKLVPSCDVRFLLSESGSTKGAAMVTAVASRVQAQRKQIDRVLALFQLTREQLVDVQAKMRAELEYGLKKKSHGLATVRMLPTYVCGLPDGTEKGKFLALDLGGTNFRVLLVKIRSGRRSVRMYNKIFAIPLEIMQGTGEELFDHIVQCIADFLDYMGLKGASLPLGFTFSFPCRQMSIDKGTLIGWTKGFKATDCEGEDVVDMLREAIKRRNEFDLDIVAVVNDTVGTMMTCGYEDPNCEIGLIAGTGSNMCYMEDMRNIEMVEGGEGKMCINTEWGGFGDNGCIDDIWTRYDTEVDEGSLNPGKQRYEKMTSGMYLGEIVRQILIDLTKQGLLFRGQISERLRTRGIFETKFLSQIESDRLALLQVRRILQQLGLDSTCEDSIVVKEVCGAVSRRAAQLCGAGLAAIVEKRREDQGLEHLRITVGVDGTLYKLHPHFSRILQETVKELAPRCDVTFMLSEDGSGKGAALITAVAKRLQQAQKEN

[16] = target: T4, Hexokinase-1 (Homo sapiens, UniProt P19367); test: SAR analysis of small molecule inhibitors of hexokinase domain containing I (HKDC1) in the hexokinase 1 selectivity assay. [Related pubchem assays (depositor defined):AID493160, AID493190]; type: functional
T4 sequence (P19367 whole entry): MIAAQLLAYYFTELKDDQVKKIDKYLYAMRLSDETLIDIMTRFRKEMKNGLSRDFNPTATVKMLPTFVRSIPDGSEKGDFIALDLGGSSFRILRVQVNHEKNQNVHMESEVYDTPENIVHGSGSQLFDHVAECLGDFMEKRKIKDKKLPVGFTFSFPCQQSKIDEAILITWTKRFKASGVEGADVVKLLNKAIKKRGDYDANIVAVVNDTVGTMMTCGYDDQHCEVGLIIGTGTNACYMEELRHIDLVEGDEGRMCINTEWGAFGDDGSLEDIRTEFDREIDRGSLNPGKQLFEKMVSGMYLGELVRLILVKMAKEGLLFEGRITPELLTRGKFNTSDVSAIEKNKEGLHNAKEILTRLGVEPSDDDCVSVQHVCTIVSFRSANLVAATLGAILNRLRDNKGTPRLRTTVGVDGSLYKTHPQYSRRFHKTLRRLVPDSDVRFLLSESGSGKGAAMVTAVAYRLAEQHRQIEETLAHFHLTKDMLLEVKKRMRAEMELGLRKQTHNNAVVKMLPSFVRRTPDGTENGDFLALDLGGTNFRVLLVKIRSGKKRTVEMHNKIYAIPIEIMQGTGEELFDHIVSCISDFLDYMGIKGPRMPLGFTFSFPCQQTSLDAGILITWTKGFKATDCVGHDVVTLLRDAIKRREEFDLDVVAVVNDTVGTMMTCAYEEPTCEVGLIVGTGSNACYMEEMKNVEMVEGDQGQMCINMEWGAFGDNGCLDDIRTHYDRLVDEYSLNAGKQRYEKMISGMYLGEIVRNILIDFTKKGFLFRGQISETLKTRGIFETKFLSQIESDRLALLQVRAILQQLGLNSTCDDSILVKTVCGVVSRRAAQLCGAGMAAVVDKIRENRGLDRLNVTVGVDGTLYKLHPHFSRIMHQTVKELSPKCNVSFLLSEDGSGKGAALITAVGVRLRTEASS

[17] = target: Nucleotide-binding oligomerization domain-containing protein 2 (Homo sapiens, UniProt Q9HC29); test: inhibition of NOD2-driven NF-kB reporter – cell-based, luminescence, uHTS, HEK293 (AID 1566); type: functional
[18] = target: Cytochrome P450 2C9 (Homo sapiens, UniProt P11712)
[19] = target: SUMO-activating enzyme (Homo sapiens, UniProt Q9UBT2); test: blockers of UBC9-mediated SUMO conjugation – biochemical, AlphaScreen, SUMOylation inhibitor project, confirmation (AID 2018); type: functional
Sequence of SUMO-activating enzyme (Q9UBE0 whole entry): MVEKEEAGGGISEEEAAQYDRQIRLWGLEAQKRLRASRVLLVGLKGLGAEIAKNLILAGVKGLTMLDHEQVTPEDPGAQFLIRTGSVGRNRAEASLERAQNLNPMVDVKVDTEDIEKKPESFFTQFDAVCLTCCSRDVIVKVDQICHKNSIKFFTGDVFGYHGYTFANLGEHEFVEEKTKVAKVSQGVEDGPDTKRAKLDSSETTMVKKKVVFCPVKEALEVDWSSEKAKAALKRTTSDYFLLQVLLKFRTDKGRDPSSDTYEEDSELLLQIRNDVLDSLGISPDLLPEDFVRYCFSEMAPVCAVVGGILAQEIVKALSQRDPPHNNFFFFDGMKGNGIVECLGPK
Sequence of SUMO-activating enzyme (Q9UBT2 whole entry): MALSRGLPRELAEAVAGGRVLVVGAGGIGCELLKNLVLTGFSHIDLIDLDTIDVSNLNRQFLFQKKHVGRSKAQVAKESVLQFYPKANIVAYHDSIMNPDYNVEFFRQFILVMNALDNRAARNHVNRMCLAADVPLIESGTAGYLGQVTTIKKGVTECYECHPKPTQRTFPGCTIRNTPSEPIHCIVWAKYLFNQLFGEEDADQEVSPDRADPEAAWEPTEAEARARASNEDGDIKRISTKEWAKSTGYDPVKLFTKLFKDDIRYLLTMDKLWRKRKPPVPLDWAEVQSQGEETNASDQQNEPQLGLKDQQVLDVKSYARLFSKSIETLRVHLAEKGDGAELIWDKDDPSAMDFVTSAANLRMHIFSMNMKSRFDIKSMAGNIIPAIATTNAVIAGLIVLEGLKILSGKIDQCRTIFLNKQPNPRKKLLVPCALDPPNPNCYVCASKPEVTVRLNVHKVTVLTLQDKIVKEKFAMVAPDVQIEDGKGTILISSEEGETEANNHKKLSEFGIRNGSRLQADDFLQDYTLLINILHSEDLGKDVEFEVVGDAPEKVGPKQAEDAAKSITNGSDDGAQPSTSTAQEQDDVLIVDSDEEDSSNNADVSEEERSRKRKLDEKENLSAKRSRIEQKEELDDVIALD

Sequence of Cytochrome P450 2D6 (P10635 whole entry): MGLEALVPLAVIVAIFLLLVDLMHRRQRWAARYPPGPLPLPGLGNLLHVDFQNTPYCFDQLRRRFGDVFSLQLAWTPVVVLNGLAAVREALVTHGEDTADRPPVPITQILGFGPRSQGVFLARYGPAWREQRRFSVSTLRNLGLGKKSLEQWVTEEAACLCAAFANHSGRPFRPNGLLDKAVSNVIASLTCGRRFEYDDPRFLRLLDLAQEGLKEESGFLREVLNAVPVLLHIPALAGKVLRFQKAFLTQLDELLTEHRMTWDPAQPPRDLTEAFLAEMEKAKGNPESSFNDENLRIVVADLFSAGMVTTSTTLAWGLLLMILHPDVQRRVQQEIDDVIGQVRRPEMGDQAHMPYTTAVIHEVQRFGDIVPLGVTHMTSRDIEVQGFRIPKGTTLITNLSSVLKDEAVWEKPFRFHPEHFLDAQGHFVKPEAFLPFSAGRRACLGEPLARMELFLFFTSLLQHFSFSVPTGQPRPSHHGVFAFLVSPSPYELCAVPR
Sequence of Tumor necrosis factor (P01375 whole entry, the tested form may be a part): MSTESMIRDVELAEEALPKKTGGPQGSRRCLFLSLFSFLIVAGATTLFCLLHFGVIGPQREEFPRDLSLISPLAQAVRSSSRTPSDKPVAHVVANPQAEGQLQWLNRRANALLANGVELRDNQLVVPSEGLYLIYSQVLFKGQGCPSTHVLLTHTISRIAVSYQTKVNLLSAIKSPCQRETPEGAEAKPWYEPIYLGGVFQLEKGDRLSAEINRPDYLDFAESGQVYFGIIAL
Sequence of Cytochrome P450 2C19 (P33261 whole entry): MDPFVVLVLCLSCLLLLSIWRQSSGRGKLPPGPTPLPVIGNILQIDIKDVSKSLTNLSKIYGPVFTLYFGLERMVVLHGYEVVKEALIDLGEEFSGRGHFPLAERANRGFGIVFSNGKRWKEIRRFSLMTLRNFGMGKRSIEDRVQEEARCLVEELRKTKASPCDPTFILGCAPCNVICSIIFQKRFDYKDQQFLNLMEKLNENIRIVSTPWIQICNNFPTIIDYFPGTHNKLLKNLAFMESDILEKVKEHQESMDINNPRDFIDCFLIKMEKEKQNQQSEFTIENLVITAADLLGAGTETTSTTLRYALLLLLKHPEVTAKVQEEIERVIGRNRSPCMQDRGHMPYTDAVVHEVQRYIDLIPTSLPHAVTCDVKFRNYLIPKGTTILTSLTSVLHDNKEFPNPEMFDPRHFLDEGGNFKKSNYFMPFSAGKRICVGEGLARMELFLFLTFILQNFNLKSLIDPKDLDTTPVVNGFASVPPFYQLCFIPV
Sequence of Nucleotide-binding oligomerization domain-containing protein 2 (Q9HC29 whole entry, the tested form may be a part): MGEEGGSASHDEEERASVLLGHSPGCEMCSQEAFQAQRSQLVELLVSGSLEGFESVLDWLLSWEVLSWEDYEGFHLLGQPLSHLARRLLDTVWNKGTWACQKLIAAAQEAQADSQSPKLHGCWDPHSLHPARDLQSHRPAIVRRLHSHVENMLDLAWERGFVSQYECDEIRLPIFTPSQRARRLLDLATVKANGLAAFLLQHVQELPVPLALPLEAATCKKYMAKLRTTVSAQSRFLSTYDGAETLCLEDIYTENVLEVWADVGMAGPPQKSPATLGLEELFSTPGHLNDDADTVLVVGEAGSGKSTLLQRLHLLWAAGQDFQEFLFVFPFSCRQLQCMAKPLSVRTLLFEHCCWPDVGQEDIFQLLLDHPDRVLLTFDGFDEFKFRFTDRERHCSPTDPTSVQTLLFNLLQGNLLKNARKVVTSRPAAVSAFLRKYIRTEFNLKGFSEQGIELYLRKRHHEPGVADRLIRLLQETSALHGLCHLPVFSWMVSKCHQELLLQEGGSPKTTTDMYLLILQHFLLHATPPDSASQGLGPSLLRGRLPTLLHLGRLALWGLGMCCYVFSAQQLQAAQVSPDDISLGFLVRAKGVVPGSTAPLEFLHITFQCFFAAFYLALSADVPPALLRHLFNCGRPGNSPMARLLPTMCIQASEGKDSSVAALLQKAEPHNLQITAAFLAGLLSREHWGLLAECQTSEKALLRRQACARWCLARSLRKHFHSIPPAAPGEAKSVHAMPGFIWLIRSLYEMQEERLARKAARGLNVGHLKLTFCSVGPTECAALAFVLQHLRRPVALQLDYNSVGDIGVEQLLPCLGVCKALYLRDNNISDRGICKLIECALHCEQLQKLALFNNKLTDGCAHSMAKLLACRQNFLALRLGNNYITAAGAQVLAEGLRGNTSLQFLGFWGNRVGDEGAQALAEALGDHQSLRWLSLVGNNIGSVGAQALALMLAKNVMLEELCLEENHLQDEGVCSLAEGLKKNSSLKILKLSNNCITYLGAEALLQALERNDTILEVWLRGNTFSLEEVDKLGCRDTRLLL
Sequence of Cytochrome P450 2C9 (P11712 whole entry): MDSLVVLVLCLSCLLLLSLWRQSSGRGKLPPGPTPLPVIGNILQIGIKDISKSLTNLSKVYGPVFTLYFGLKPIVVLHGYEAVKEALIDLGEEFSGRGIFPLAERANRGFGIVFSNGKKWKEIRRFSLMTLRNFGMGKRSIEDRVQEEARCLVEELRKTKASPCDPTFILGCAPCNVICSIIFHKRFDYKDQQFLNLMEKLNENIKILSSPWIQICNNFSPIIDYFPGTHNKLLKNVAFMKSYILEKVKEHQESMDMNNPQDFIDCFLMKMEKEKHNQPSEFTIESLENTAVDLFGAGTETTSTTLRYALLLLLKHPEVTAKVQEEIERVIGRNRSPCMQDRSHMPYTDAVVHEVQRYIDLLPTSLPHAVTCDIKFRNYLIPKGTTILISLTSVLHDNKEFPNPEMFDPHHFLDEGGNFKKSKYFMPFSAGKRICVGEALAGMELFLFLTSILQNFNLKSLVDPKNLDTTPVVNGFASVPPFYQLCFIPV

Structure (SMILES): Cc1cc(C(=O)NC2CCCc3c2cnn3-c2ccc(C)c(C)c2)n(C)n1 (stereo not drawn)
IC50 [1]: > 20 µM (inactive) | IC50 [2]: > 0.117 µM (active) | AC50 [3]: < 0.26 µM (active) | AC50 [4]: < 0.26 µM (active) | AC50 [5]: 0.24 µM (active) | IC50 [6]: 0.0793 µM (active) | IC50 [7]: 0.0431 µM (active)

Structure (SMILES): O=C(CCN1C(=O)C2C3C=CC(C3)C2C1=O)Nc1ccc2ncccc2c1 (stereo not drawn)
AC50 [8]: inconclusive | AC50 [9]: 20 µM (inconclusive)

Structure (SMILES): Cc1nn(-c2ccccc2)c2nc(C(Cl)(Cl)Cl)nc(O)c12
IC50 [10]: 17.9 µM (inactive) | IC50 [11]: > 20 µM (inactive) | IC50 [1]: > 20 µM (inactive) | EC50 [12]: 12.4 µM (active) | IC50 [13]: > 20 µM (inactive) | IC50 [14]: > 20 µM (inactive)

Structure (SMILES): O=C(c1ccc(S(=O)(=O)c2cccc(Cl)c2)c([N+](=O)[O-])c1)N1CCN(c2ccccn2)CC1
IC50 [10]: 1.95 µM (active) | IC50 [11]: 1.72 µM (active) | IC50 [1]: 8.21 µM (active) | EC50 [12]: 10.1 µM (active) | EC50 [17]: 12.3 µM (active) | IC50 [13]: > 20 µM (inactive) | IC50 [14]: 10.4 µM (active) | IC50 [6]: 4.43 µM (active) | IC50 [7]: 1.4 µM (active)

Structure (SMILES): CCN(CC)S(=O)(=O)c1cccc(NC(=O)COC(=O)c2[nH]c(C)c(C(C)=O)c2C)c1
IC50 [2]: 5.62 µM (active)

Structure (SMILES): O=c1c2ccccc2nc(/C=C/c2ccccc2)n1CCc1ccccc1
IC50 [15]: > 80 µM (inactive) | IC50 [16]: > 80 µM (inactive)

Structure (SMILES): O=S(=O)(Nc1ccc(O)c2ccccc12)c1ccc(Cl)cc1
IC50 [15]: 15.6 µM (active) | IC50 [16]: > 80 µM (inactive)

The remaining lines, values ahead:

AC50 [8]: inconclusive
Structure (SMILES): CO/N=C(/C)CCC(=O)OC[C@@H]1O[C@H](C#Cc2ccccc2)C=C[C@@H]1Oc1ccc(C)cc1

IC50 [2]: 13.8 µM (inactive)
Structure (SMILES): NC(=O)c1ccsc1NC(=O)COC(=O)Cc1cccc2ccccc12

IC50 [15]: > 80 µM (inactive) | IC50 [16]: > 80 µM (inactive)
Structure (SMILES): Cc1ccc(C)c(S(=O)(=O)Nc2cccc3ccccc23)c1

AC50 [8]: inconclusive
Structure (SMILES): CO[C@H]1COC(=O)[C@@H](Cc2ccccc2)NC(=O)[C@@H](C)COC(=O)CCC[C@@H]1C

AC50 [8]: inconclusive
Structure (SMILES): CC(C)[C@](N)(C(=O)O)c1ccccc1

AC50 [8]: inconclusive | AC50 [18]: 5.01 µM (inconclusive)
Structure (SMILES): C/C(=N/NC(=O)c1ccc(NC(=O)c2ccc(F)cc2)cc1)c1ccccc1

IC50 [19]: 41.3 µM (active)
Structure (SMILES): Cc1cc(OC(C(=O)O)c2ccccc2)c2c(C)c(Cc3ccccc3)c(=O)oc2c1 (stereo not drawn)
